Source: US20250017936A1, “CELL-POTENT BISUBSTRATE INHIBITORS FOR NICOTINAMIDE N-[…] (NNMT) AND USES THEREOF” (priority 2021, published 2025)
Read-outs that look alike come from different tables or passages of the source.

Experiments:
NNMT [1] = molecular target: T1, NNMT (Homo sapiens (Human), UniProt P40261); test: biochemical; assay type: biochemical
NNMT [2] = molecular target: T1, NNMT; test: Fluorescence polarization (FP)-based competition assay with probe II138; assay type: binding; details: read-out: Ki (FP Assay)
[3] = SAHH-coupled Assay IC50, 10 μM SAM, 10 μM nicotinamide (Km), 0.1 μM NNMT

T1 sequence (P40261 whole entry): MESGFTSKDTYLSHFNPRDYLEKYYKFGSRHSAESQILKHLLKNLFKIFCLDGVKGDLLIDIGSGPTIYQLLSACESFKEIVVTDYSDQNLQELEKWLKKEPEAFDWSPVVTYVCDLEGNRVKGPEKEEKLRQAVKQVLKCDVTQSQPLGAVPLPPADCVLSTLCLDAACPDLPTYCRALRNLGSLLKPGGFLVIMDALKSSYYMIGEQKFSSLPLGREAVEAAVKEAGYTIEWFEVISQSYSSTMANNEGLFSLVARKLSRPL

IC50 (NNMT [1]; [3])	IC50 (NNMT [1]; 10 μM SAM, 10 μM nicotinamide (Km), 0.1 μM NNMT, read-out: SAHH-coupled Assay IC50)	IC50 (NNMT [1]; 10 μM SAM, 10 μM nicotinamide (Km), 0.1 μM NNMT, read-out: SAHH-coupled assay IC50)	Ki (NNMT [1]; read-out: Ki, app)	IC50 (NNMT [1]; substrate and SAM concentration at 4 Km, read-out: SAHH-coupled Assay IC50)	Ki (NNMT [2])	SMILES
7600 nM						CC(=O)N(CC#Cc1cccc(C(N)=O)c1)C[C@H]1O[C@@H](n2cnc3c(N)ncnc32)[C@H](O)[C@@H]1O [II661, 3-(3-(N-(((2R,3S,4R,5R)-5-(6-amino-9H-purin-9-yl)-3,4-dihydroxytetrahydrofuran-2-yl)methyl)acetamido)prop-1-yn-1-yl)benzamide]
7700 nM						CCN(CC#Cc1cccc(C(N)=O)c1)C[C@H]1C[C@@H](n2ccc3c(Cl)ncnc32)[C@H](O)[C@@H]1O [II542, 3-(3-((((1R,2R,3S,4R)-4-(4-chloro-7H-pyrrolo[2,3-d]pyrimidin-7-yl)-2,3dihydroxycyclopentyl)methyl)(ethyl)amino)prop-1-yn-1-yl)benzamide]
	25 ± 7 nM	25 ± 7 nM	4 ± 0.02 nM	93 ± 7 nM	70 ± 8 nM	CC(=O)N(CC#Cc1cccc(C(N)=O)c1)C[C@H]1C[C@@H](n2ccc3c(N)ncnc32)[C@H](O)[C@@H]1O [II642, 3-(3-(N-(((1R,2R,3S,4R)-4-(4-amino-7H-pyrrolo[2,3-d]pyrimidin-7-yl)-2,3-dihydroxycyclopentyl)methyl)acetamido)prop-1-yn-1-yl) benzamide]
